Laboratory results taken from patent US12023365B2, “Sustained release formulations of Crocus sativus” (COUNCIL OF SCIENTIFIC & INDUSTRIAL RESEARCH, priority 2017, dated 2024).

Tests used:
[1] = literature (Asai 2005; Liu and Qian 2002); cited from earlier work
[2] = tested on: scopolamine induced memory deficit; assay: Scopolamine induced dementia, passive avoidance test; assay type: in vivo; conditions: Swiss albino mice, 2 mg/kg
Text: Animals were randomized to their body weight (n=6-8). All animals were then habituated to experimental apparatus (Passive avoidance instrument of make—UGO Basile Biological Research Apparatus Italy) prior to the experiment. For habituation, animals were placed gently in the light compartment of the apparatus. After 5 seconds guillotine door was opened and animal allowed entering the dark compartment without giving the shock. Animals that took more than 100 seconds to enter the dark room were eliminated from the experiments. For acquisition trial the animals were placed in light compartment and allowed to enter the dark compartment through guillotine door. As soon as the animal entered to the dark compartment, door was closed and animal was delivered a foot shock (0.5 mA current) immediately for the duration of 5 seconds. Animals were then removed from apparatus after 20 seconds and placed temporarily in its home cage. Repeated the same procedure (keeping the gap between acquisition trials to 5 minutes) till the animal remained in the light compartment for consecutive 120 seconds. Retention was recorded at day 2 without shock in dark chamber. Increase in transfer latency time from light to dark chamber indicated learning in animals. Rivastigmine was used as positive control in this study. […] Percentage (%) change in transfer latency as compared with control on retention trial was calculated. […]

Structure (SMILES) | plasma half-life [1] | effect on latency time (positive control) [2]
CC(/C=C/C=C(\C)C(=O)O)=C\C=C\C=C(C)\C=C\C=C(/C)C(=O)O [crocetin] | ~2 h | –
CCN(C)C(=O)Oc1cccc([C@H](C)N(C)C)c1 [rivastigmine] | – | significant reduction in latency time
